Test results reported in PubChem BioAssay AID1963970 (Molecular Pharmacology Branch, DTP, NCI, 2024).
pIC50: −log10 of the molar value. Several values for one entry are separate records, joined by “and”; a condition that tells them apart may be missing. Equal values may be shown once. One block for each molecule: values may come before it.

Tested on: 931267-113-T-J1-PDC multicell spheroid viability
Test: Anticancer human tumor 931267-113-T-J1-PDC patient-derived colon adenocarcinoma cell line growth inhibition [PI3K]
Conditions: for viability, T/C: stronger effect = lower value
Outline: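 Targeted small molecules plus PI3K inhibitors, half-log dose series from Cmax (default top 10 microM), were applied to heterotypic spheroids of cancer cells with HUVEC and MSCs. Viability indicated growth inhibition.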

[1] = curve of first compound, second compound 0.00316 µM
[2] = curve of first compound, second compound 0.01 µM
[3] = curve of first compound, second compound 0.0316 µM
[4] = curve of first compound, second compound 0.1 µM
[5] = curve of first compound, second compound 0.316 µM
[6] = curve of first compound, second compound 1 µM
[7] = second compound 0.00316 µM, first compound 0.0316 µM
[8] = second compound 0.00316 µM, first compound 0.1 µM
[9] = second compound 0.00316 µM, first compound 0.316 µM
[10] = second compound 0.00316 µM, first compound 1 µM
[11] = second compound 0.01 µM, first compound 0.0316 µM
[12] = second compound 0.01 µM, first compound 0.1 µM
[13] = second compound 0.01 µM, first compound 0.316 µM
[14] = second compound 0.01 µM, first compound 1 µM
[15] = second compound 0.0316 µM, first compound 0.0316 µM
[16] = second compound 0.0316 µM, first compound 0.1 µM
[17] = second compound 0.0316 µM, first compound 0.316 µM
[18] = second compound 0.0316 µM, first compound 1 µM
[19] = second compound 0.1 µM, first compound 0.0316 µM
[20] = second compound 0.1 µM, first compound 0.1 µM
[21] = second compound 0.1 µM, first compound 0.316 µM
[22] = second compound 0.1 µM, first compound 1 µM
[23] = second compound 0.316 µM, first compound 0.0316 µM
[24] = second compound 0.316 µM, first compound 0.1 µM
[25] = second compound 0.316 µM, first compound 0.316 µM
[26] = second compound 0.316 µM, first compound 1 µM
[27] = second compound 1 µM, first compound 0.0316 µM
[28] = second compound 1 µM, first compound 0.1 µM
[29] = second compound 1 µM, first compound 0.316 µM
[30] = second compound 1 µM, first compound 1 µM
[31] = second compound 0.00316 µM, first compound 3.16 µM
[32] = second compound 0.00316 µM, first compound 10 µM
[33] = second compound 0.01 µM, first compound 3.16 µM
[34] = second compound 0.01 µM, first compound 10 µM
[35] = second compound 0.0316 µM, first compound 3.16 µM
[36] = second compound 0.0316 µM, first compound 10 µM
[37] = second compound 0.1 µM, first compound 3.16 µM
[38] = second compound 0.1 µM, first compound 10 µM
[39] = second compound 0.316 µM, first compound 3.16 µM
[40] = second compound 0.316 µM, first compound 10 µM
[41] = second compound 1 µM, first compound 3.16 µM
[42] = second compound 1 µM, first compound 10 µM
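Further: viability read 7 days after compound addition.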

Compound: CCN1CCN(Cc2ccc(Nc3ncc(F)c(-c4cc(F)c5nc(C)n(C(C)C)c5c4)n3)nc2)CC1 + CC(Nc1ccc2c(c1)OCCn1cc(N3C(=O)OCC3C(F)F)nc1-2)C(N)=O
pIC50 [1]: < 6.00
pIC50 [2]: < 6.00
pIC50 [3]: < 6.00
pIC50 [4]: < 6.00
pIC50 [5]: < 6.00
pIC50 [6]: 6.34
viability, T/C (second compound 0.00316 µM, first compound 0.00316 µM): 95.5%
viability, T/C (second compound 0.00316 µM, first compound 0.01 µM): 99.3%
viability, T/C [7]: 102%
viability, T/C [8]: 108%
viability, T/C [9]: 99.3%
viability, T/C [10]: 80.8%
viability, T/C (second compound 0.01 µM, first compound 0.00316 µM): 108%
viability, T/C (second compound 0.01 µM, first compound 0.01 µM): 96.7%
viability, T/C [11]: 99.2%
viability, T/C [12]: 91.5%
viability, T/C [13]: 93.4%
viability, T/C [14]: 80.7%
viability, T/C (second compound 0.0316 µM, first compound 0.00316 µM): 105%
viability, T/C (second compound 0.0316 µM, first compound 0.01 µM): 101%
viability, T/C [15]: 95.2%
viability, T/C [16]: 85.2%
viability, T/C [17]: 86%
viability, T/C [18]: 70.2%
viability, T/C (second compound 0.1 µM, first compound 0.00316 µM): 92.8%
viability, T/C (second compound 0.1 µM, first compound 0.01 µM): 97.8%
viability, T/C [19]: 94.1%
viability, T/C [20]: 79.7%
viability, T/C [21]: 69.7%
viability, T/C [22]: 60.9%
viability, T/C (second compound 0.316 µM, first compound 0.00316 µM): 80.4%
viability, T/C (second compound 0.316 µM, first compound 0.01 µM): 84.5%
viability, T/C [23]: 79%
viability, T/C [24]: 70.4%
viability, T/C [25]: 62.5%
viability, T/C [26]: 51.6%
viability, T/C (second compound 1 µM, first compound 0.00316 µM): 86.7%
viability, T/C (second compound 1 µM, first compound 0.01 µM): 79.4%
viability, T/C [27]: 65.7%
viability, T/C [28]: 59.2%
viability, T/C [29]: 52%
viability, T/C [30]: 46.3%

Compound: C[C@@H](NC(=O)c1ncnc(N)c1Cl)c1ncc(C(=O)Nc2cc(C(F)(F)F)c(Cl)cn2)s1 + CC(Nc1ccc2c(c1)OCCn1cc(N3C(=O)OCC3C(F)F)nc1-2)C(N)=O
pIC50 [1]: < 5.00
pIC50 [2]: < 5.00
pIC50 [3]: < 5.00
pIC50 [4]: 5.05
pIC50 [5]: 5.10
pIC50 [6]: 5.31
viability, T/C [7]: 114%
viability, T/C [8]: 129%
viability, T/C [9]: 110%
viability, T/C [10]: 121%
viability, T/C [31]: 90.8%
viability, T/C [32]: 75.3%
viability, T/C [11]: 116%
viability, T/C [12]: 108%
viability, T/C [13]: 111%
viability, T/C [14]: 118%
viability, T/C [33]: 101%
viability, T/C [34]: 66.7%
viability, T/C [15]: 99.7%
viability, T/C [16]: 124%
viability, T/C [17]: 119%
viability, T/C [18]: 110%
viability, T/C [35]: 97.9%
viability, T/C [36]: 63.6%
viability, T/C [19]: 116%
viability, T/C [20]: 93.3%
viability, T/C [21]: 101%
viability, T/C [22]: 95.9%
viability, T/C [37]: 78%
viability, T/C [38]: 46.4%
viability, T/C [23]: 94%
viability, T/C [24]: 97.5%
viability, T/C [25]: 96.4%
viability, T/C [26]: 87%
viability, T/C [39]: 75.2%
viability, T/C [40]: 43.5%
viability, T/C [27]: 83%
viability, T/C [28]: 88.8%
viability, T/C [29]: 80.7%
viability, T/C [30]: 77.2%
viability, T/C [41]: 62.3%
viability, T/C [42]: 29.7%

More lines, main results first:

pIC50 [1]: < 5.00
pIC50 [2]: < 5.00
pIC50 [3]: < 5.00
pIC50 [4]: < 5.00
pIC50 [5]: < 5.00
pIC50 [6]: < 5.00
Compound: CC(Cn1ccc(-c2ccc(C#N)c(Cl)c2)n1)NC(=O)c1cc(C(C)O)[nH]n1 (stereo not given) + CC(Nc1ccc2c(c1)OCCn1cc(N3C(=O)OCC3C(F)F)nc1-2)C(N)=O
viability, T/C [7]: 88.4%
viability, T/C [8]: 101%
viability, T/C [9]: 98.5%
viability, T/C [10]: 110%
viability, T/C [31]: 111%
viability, T/C [32]: 101%
viability, T/C [11]: 102%
viability, T/C [12]: 103%
viability, T/C [13]: 106%
viability, T/C [14]: 115%
viability, T/C [33]: 113%
viability, T/C [34]: 110%
viability, T/C [15]: 107%
viability, T/C [16]: 106%
viability, T/C [17]: 101%
viability, T/C [18]: 89.8%
viability, T/C [35]: 112%
viability, T/C [36]: 91.5%
viability, T/C [19]: 98.5%
viability, T/C [20]: 98.8%
viability, T/C [21]: 101%
viability, T/C [22]: 94.8%
viability, T/C [37]: 103%
viability, T/C [38]: 79.8%
viability, T/C [23]: 92.4%
viability, T/C [24]: 90.5%
viability, T/C [25]: 86.8%
viability, T/C [26]: 80.2%
viability, T/C [39]: 90.4%
viability, T/C [40]: 72.8%
viability, T/C [27]: 76.4%
viability, T/C [28]: 76.8%
viability, T/C [29]: 74.2%
viability, T/C [30]: 74.8%
viability, T/C [41]: 76.1%
viability, T/C [42]: 59.2%

pIC50 (curve of compound): < 5.00
Compound: CNC(=O)c1ccc(N2C(=S)N(c3ccc(C#N)c(C(F)(F)F)c3)C(=O)C2(C)C)cc1F
viability, T/C (compound 0.0316 µM): 104% [middle of 4 runs]
viability, T/C (compound 0.1 µM): 103% [middle of 4 runs]
viability, T/C (compound 0.316 µM): 98.2% [middle of 4 runs]
viability, T/C (compound 1 µM): 101% [middle of 4 runs]
viability, T/C (compound 3.16 µM): 102% and 108% (2×) and 105%
viability, T/C (compound 10 µM): 108% and 105% (2×) and 93.6%

pIC50 [1]: 5.42
pIC50 [2]: 5.56
pIC50 [3]: 5.91
pIC50 [4]: 6.38
pIC50 [5]: > 7.50
pIC50 [6]: > 7.50
Compound: Cn1nccc1Nc1nccc(-c2ccn(C(CO)c3ccc(Cl)c(F)c3)c(=O)c2)n1 (stereo not given) + COc1c(OCCCN2CCOCC2)ccc2c3n(c(=NC(=O)c4cnc(N)nc4)nc12)CCN3
viability, T/C [7]: 94.7%
viability, T/C [8]: 82.3%
viability, T/C [9]: 83.2%
viability, T/C [10]: 77.4%
viability, T/C [31]: 52.2%
viability, T/C [32]: 32.1%
viability, T/C [11]: 97.6%
viability, T/C [12]: 98%
viability, T/C [13]: 79.2%
viability, T/C [14]: 67.5%
viability, T/C [33]: 48.5%
viability, T/C [34]: 22.4%
viability, T/C [15]: 79.7%
viability, T/C [16]: 77%
viability, T/C [17]: 68%
viability, T/C [18]: 55.6%
viability, T/C [35]: 30.6%
viability, T/C [36]: 16.1%
viability, T/C [19]: 70%
viability, T/C [20]: 67.4%
viability, T/C [21]: 52.4%
viability, T/C [22]: 37.4%
viability, T/C [37]: 21.9%
viability, T/C [38]: 10.3%
viability, T/C [23]: 42.7%
viability, T/C [24]: 40.2%
viability, T/C [25]: 35%
viability, T/C [26]: 23.7%
viability, T/C [39]: 13.8%
viability, T/C [40]: 6.64%
viability, T/C [27]: 32.7%
viability, T/C [28]: 29.6%
viability, T/C [29]: 27.3%
viability, T/C [30]: 18.4%
viability, T/C [41]: 9.42%
viability, T/C [42]: 5.13%
